Experimental data from patent US12178917B2, “Beta-lactamase formulations and uses thereof” (Theriva Biologics, Inc., priority 2014, dated 2024).

Assays:
[1] = tested on: intestinal microbiome; assay: P3A-mediated microbiome protection in humanized pigs, 16S rRNA sequencing of fecal DNA; format: in vivo, gnotobiotic pigs populated with human adult fecal microflora; settings: feces collected on Day 14; antibiotics IP 50 mg/kg 4 days; P3A 75 mg/dose orally 4 times a day 7 days
[2] = tested on: ampicillin-resistant aerobes including those of the phylum Proteobacteria; assay: Plating of Day 21 feces on LB+amp plates; format: in vivo, gnotobiotic pigs populated with human adult fecal microflora; settings: aerobic conditions, 37° C.
Protocol: Equal quantities of diluted feces collected from animals at necropsy were plated on LB+amp plates and grown under aerobic conditions at 37° C., The colonies were counted while taking into account the dilution factor.
The gastrointestinal (GI) tract of 5 day old gnotobiotic pigs was populated with human adult fecal microflora. Two days later, animals received antibiotics (clindamycin or CRO, IP, 50 mg/kg) for 4 days. P3A was delivered orally 4 times a day (75 mg/dose) for 7 days beginning the day before CRO administration. Specifically, the P3A delayed-release capsules as described in Examples 1 and 2 were administered to the animals. C. difficile (2.6×10^6 cfu) was delivered orally to all animals on Day 13. Feces were collected on Days 11, 12, 14, 18, 20 directly from the rectum using sterile cotton swabs and at necropsy on Day 21 directly from the intestinal tract. […] The levels of a specific bacterial population expected to be sensitive to CRO, but not to clindamycin, ampicillin-resistant aerobes including those of the phylum Proteobacteria, were assessed by plating equal amounts of Day 21 feces on LB+amp plates. Fecal C. difficile Toxin A and interleukin-8 (ILS) were assessed via ELISA as a measure of C. difficile infection (CDI). Intestinal tracts collected at necropsy on Day 21 were evaluated histologically for signs of CDI.

[3] = in vivo; set-up: species or system Yorkshire piglets; settings: Yorkshire, pig; for CRO serum levels: iv, 50 mg/kg
Protocol: A total of 10 pigs were treated once a day with IV ceftriaxone (CRO; 50 mg/kg) for a total of 7 days. A cohort of 5 pigs also received oral P3A (75 mg, four times a day), starting the day before CRO treatment and extending one day after CRO was stopped, for a total of 9 days. On Day 2 of CRO treatment, serum was collected 1, 6, and 19 hours after CRO administration. Serum was assayed for CRO levels using a validated high-performance liquid chromatography assay. […] The CRO levels in the serum collected at 19 hours was below the limit of detection of the assay (0.5 ug/mL). For both sets of histograms (1 hour and 6 hours), the left bar is ceftriaxone alone and the right bar is ceftriaxone and P3A.
Another pig study was performed to determine if oral administration of P3A (i.e. SYN-004) had any effect on the systemic levels of antibiotics. For this study, ten Yorkshire piglets, approximately 2 months old and weighing approximately 20 kg were treated with intravenous ceftriaxone (CRO) at 50 mg/kg once a day for seven days. Five animals also received P3A capsules (1 capsule containing 75 mg of P3A, four times a day) beginning the day before CRO treatment and extending to one day after CRO treatment, for a total of nine days. Specifically, the P3A delayed-release capsules as described in Examples 1 and 2 were administered to the animals. On day 2, animals were anesthetized and approximately 9 mls of blood drawn from the vena cava at three timepoints, 1 hour, 6 hours, and 19 hours after CRO administration. Blood was immediately dispensed into a serum separator vacutainer tube. After coagulation, samples were centrifuged and the serum was transferred to a cryovial and stored at −80° C. until analysis. CRO in the serum samples was quantified using a validated high-performance liquid chromatography assay (Owens et al., 2001, Int. J. Antimicrobial Agents, 17:483). A standard curve for CRO was prepared in negative control (untreated) pig serum and contained 6 points ranging from 0.5 to 50 ug/mL. The assay was linear over a range of 0.5 to 50 ug/mL. […]

[4] = tested on: intestinal microbiome; assay: Whole genome shotgun sequencing and comparative metagenomics of pig fecal samples; format: in vivo, gnotobiotic pigs populated with human adult fecal microflora; settings: for number of bacterial taxa, Genus / number of bacterial taxa, Species / number of bacterial taxa, Strain/sub-species: per treatment group, pig fecal samples
Protocol: In order to study the ability of P3A to protect the intestinal microbiome from antibiotics-induced (e.g., ceftriaxone (CRO)-induced) damage, pig fecal samples obtained from the study described above were subjected to additional genomic analysis. Specifically, the 16S rRNA gene V1V2 region was sequenced. In addition, fecal DNA was subjected to whole genome shotgun sequencing. Shotgun sequencing was performed using Illumina HiSeq RAPID RUN, targeting 100 bp single read with the aim to achieve approximately 10-20 million reads per sample (Table 6),
These sequence data were classified taxonomically to identify microbial communities associated with the pig fecal samples. Taxonomic classification was performed using bioInformatics algorithms and curated genome databases. Briefly, raw, unassembled shotgun sequence reads were probed against curated GeneBook bacterial and viral databases using GENIUS software package for rapid identification of bacteria communities as well as their relative abundance (Hasan of al., 2014, PLoS ONE 9:e97699; Lax et al., 2014, Science 345:1048). The analyses identified 139 bacterial strains, 79 species, and 35 genera among the treatment groups (Table 7).
Comparative metagenomics analyses were performed by creating heatmaps based on the relative abundance of each bacterial strain in each sample (see FIGS. 11A and 11B) and at the bacterial genus level (see FIG. 12) using the NMF R software package (Gaujoux and Seoighe, 2010, BMC Bioinformatics, 11:367). The samples were clustered using the maximum distance function and the Ward Hierarchical Clustering algorithm. The distance function was used to measure the difference in composition between each of the samples. The clustering algorithm used the distances between each of the samples to create a dendrogram that clustered samples with similar compositions, including both the presence and absence of organisms, in the same clades.
Comparative metagenomics analyses were also performed to investigate changes in the microbiome across different treatment groups. For these analyses, the centroid classification method from the PamR package (Tibshirani of al., 2002, PNAS 99:6567), was used to compare the average frequency (absolute abundance) of each bacterial strain in the samples. The deviation of the centroid of each bacterial strain from each study group was graphed by the overall centroid of all the study groups (FIGS. 13A and 13B).
As the number of sequence reads generated from each individual sample was variable, subsamples from each sample were chosen to represent a subset of 10 million reads. This was done to avoid any bias due to different sample sizes and to enable the measurement of the absolute abundance of the bacterial organisms in the samples. Using these subsets to reduce bias, the comparative metagenomics analyses were performed as described previously for FIGS. 13A and 13B by graphing the deviation of the centroid of each bacterial strain from each study group by the overall centroid of all the study groups (FIGS. 14A and 14B).

[5] = species-level centroid classification vs Group 1 (Control)

For CO/N=C(\C(=O)N[C@@H]1C(=O)N2C(C(=O)O)=C(CSc3nc(=O)c(=O)[nH]n3C)CS[C@H]12)c1csc(N)n1 [CRO, ceftriaxone], the “phylum-level taxonomic classification of bacteria in fecal DNA” value [1] was “dysbiosis”, the “bacteria levels on LB+amp plates” value [2] was “at least two log lower levels” and the concentration at 19 h [3] was less than 500 ng/mL. The CRO serum levels ([3]; 1 h) was 79.43 ± 12.08 µg/mL, the CRO serum levels ([3]; 6 h) was 5.83 ± 1.15 µg/mL and the “number of bacterial taxa, Genus” value [4] was 32. The “number of bacterial taxa, Species” value [4] was 70, the “number of bacterial taxa, Strain/sub-species” value [4] was 102 and the “abundance of Methanobrevibacter smithii” value [4, 5] was “overabundance”. For the same compound, the “abundance of Turicibacter spp” value [4, 5] was “underrepresentation”.

For CCC[C@@H]1C[C@@H](C(=O)N[C@@H]([C@H]2O[C@H](SC)[C@H](O)[C@@H](O)[C@H]2O)[C@H](C)Cl)N(C)C1 [clindamycin], the “number of bacterial taxa, Genus” value [4] was 7, the “number of bacterial taxa, Species” value [4] was 12 and the “number of bacterial taxa, Strain/sub-species” value [4] was 17.
